ChEMBL document CHEMBL5365526 (J Med Chem, 2023)
The source made the active and inactive calls. The calls are words filed in the database; no cut-off is given here.

Columns and labels:
[1] = target: T1, Mitogen-activated protein kinase 7 (Homo sapiens, UniProt Q13164); test: Inhibition of ERK5 (unknown origin) by ADP-Glo kinase assay
Target sequence in this assay (Q13164 whole entry): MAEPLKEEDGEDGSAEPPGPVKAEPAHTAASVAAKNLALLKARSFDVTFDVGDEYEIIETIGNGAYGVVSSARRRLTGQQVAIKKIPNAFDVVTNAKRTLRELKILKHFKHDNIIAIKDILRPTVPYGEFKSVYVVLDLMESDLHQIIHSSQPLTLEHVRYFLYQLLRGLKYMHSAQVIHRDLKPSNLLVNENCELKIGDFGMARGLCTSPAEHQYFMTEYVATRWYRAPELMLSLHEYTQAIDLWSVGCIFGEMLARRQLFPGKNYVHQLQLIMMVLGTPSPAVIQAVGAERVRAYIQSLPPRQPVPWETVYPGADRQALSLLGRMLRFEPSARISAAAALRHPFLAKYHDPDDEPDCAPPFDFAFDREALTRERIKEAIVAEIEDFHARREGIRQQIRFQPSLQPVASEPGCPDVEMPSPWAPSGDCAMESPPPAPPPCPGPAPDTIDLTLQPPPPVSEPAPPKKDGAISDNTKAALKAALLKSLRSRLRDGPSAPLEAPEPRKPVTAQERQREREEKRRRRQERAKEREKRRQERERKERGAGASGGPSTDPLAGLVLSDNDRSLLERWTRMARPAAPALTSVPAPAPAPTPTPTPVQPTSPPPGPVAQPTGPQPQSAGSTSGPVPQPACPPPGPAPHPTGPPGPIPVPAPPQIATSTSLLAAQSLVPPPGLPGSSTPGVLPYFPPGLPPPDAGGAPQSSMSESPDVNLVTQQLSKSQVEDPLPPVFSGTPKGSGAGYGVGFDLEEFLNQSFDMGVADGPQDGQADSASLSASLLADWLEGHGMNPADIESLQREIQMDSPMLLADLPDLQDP

[2] = target: T2, von Hippel-Lindau disease tumor suppressor/Mitogen-activated protein kinase 7 (Homo sapiens, UniProt Q13164+P40337); test: PROTAC activity at VHL/ERK5 in human HepG2 cells assessed as maximal induction of ERK5 degradation incubated for 12 hrs by western blot analysis relative to control; type: cell-based
Target sequence in this assay (P40337 whole entry partner): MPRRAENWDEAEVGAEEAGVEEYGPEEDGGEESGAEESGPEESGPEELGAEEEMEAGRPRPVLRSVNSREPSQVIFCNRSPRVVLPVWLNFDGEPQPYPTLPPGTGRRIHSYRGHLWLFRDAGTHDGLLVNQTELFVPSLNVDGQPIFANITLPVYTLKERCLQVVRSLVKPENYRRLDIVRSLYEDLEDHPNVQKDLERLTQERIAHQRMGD
Target sequence in this assay (Q13164 2-816 limits assumed): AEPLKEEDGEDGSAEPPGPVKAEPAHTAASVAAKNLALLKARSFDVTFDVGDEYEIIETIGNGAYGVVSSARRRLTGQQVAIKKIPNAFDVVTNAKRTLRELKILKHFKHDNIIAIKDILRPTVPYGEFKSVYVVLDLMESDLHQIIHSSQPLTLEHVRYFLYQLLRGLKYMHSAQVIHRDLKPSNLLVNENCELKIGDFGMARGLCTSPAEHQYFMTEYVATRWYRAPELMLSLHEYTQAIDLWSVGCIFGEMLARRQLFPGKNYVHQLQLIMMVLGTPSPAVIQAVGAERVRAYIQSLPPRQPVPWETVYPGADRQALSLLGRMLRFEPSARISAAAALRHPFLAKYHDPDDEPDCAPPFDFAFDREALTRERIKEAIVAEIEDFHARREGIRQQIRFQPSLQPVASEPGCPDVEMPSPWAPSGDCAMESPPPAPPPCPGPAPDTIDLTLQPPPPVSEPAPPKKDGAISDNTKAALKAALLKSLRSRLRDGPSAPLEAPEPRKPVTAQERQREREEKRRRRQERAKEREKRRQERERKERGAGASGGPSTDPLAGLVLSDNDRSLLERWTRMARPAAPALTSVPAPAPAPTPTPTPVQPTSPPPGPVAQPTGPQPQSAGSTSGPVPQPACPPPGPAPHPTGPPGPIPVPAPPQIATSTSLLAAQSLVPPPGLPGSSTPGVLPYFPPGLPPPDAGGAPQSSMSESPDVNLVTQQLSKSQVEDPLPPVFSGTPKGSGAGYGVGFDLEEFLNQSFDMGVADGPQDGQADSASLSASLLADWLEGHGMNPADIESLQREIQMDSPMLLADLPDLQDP

[3] = target: T2, von Hippel-Lindau disease tumor suppressor/Mitogen-activated protein kinase 7; test: PROTAC activity at VHL/ERK5 in human HepG2 cells assessed as induction of ERK5 degradation incubated for 12 hrs by western blot analysis; type: cell-based
Target sequence in this assay (Q13164 whole entry): as the sequence (Q13164 whole entry) above
Target sequence in this assay (P40337 whole entry): as the sequence (P40337 whole entry partner) above

[4] = target: T2, von Hippel-Lindau disease tumor suppressor/Mitogen-activated protein kinase 7; test: PROTAC activity at VHL/ERK5 in human MDA-MB-231 cells assessed as maximal induction of ERK5 degradation incubated for 12 hrs by western blot analysis relative to control; type: cell-based
Target sequence in this assay (P40337 whole entry partner): as above
Target sequence in this assay (Q13164 2-816 limits assumed): as the sequence (Q13164 2-816 limits assumed) above

[5] = target: T2, von Hippel-Lindau disease tumor suppressor/Mitogen-activated protein kinase 7; test: PROTAC activity at VHL/ERK5 in human A-375 cells assessed as induction of ERK5 degradation at 100 nM incubated for 24 hrs by western blot analysis; type: cell-based
Target sequence in this assay (P40337 whole entry partner): as the sequence (P40337 whole entry partner) above
Target sequence in this assay (Q13164 2-816 limits assumed): as the sequence (Q13164 2-816 limits assumed) above

HCT-116 [6] = test: Effect on vemurafenib-induced antitumor activity against human HCT-116 cells assessed as reduction in cell viability at 200 nM incubated for 72 hrs by CCK8 assay; type: functional, cell-based
A-375 [7] = test: Antiproliferative activity against human A-375 cells assessed as reduction in cell viability incubated for 72 hrs by CCK8 assay; type: functional, cell-based
[8] = target: T2, von Hippel-Lindau disease tumor suppressor/Mitogen-activated protein kinase 7; test: PROTAC activity at VHL/ERK5 in human PC-3 cells assessed as maximal induction of ERK5 degradation incubated for 12 hrs by western blot analysis relative to control; type: cell-based
Target sequence in this assay (P40337 whole entry partner): as the sequence (P40337 whole entry partner) above
Target sequence in this assay (Q13164 2-816 limits assumed): as the sequence (Q13164 2-816 limits assumed) above

A-375 [9] = test: Effect on ERK5 mRNA expression in human A-375 cells at 10 to 1000 nM incubated for 24 hrs by real-time PCR analysis; type: functional, cell-based; details: dose 10-1000 nM
[10] = target: T2, von Hippel-Lindau disease tumor suppressor/Mitogen-activated protein kinase 7; test: PROTAC activity at VHL/ERK5 in human A-375 cells assessed as induction of ERK5 degradation at 200 nM incubated for 2 to 4 hrs by western blot analysis; type: cell-based; details: time 2-4 hrs
Target sequence in this assay (P40337 whole entry partner): as the sequence (P40337 whole entry partner) above
Target sequence in this assay (Q13164 2-816 limits assumed): as the sequence (Q13164 2-816 limits assumed) above

HCT-116 [11] = test: Effect on trametinib-induced antitumor activity against human HCT-116 cells assessed as reduction in cell viability at 200 nM incubated for 72 hrs by CCK8 assay; type: functional, cell-based
[12] = target: T1, Mitogen-activated protein kinase 7; test: Inhibition of ERK5 (unknown origin) at 0.5 uM by kinase profiling analysis
Target sequence in this assay (Q13164 2-816 limits assumed): as above

[13] = target: T2, von Hippel-Lindau disease tumor suppressor/Mitogen-activated protein kinase 7; test: PROTAC activity at VHL/ERK5 in human PC-3 cells assessed as induction of ERK5 degradation incubated for 12 hrs by western blot analysis; type: cell-based
Target sequence in this assay (Q13164 whole entry): as the sequence (Q13164 whole entry) above
Target sequence in this assay (P40337 whole entry): as the sequence (P40337 whole entry partner) above

A-375 [14] = test: Inhibition of cell colony formation in human A-375 cells at 0.5 uM cultured in 8% FBS and measured after 7 days in presence of LPS by crystal violet staining based analysis; type: functional; details: time 7.0 day
A-375 [15] = test: Inhibition of M2 macrophage development in human A-375 cells assessed as inhibition of cell colony formation at 0.5 uM cultured in macrophage M0 medium and measured after 7 days in presence of LPS by crystal violet staining based analysis; type: functional; details: time 7.0 day
HepG2 = test: Antiproliferative activity against human HepG2 cells assessed as reduction in cell viability incubated for 72 hrs by CCK8 assay; type: functional, cell-based
[16] = target: von Hippel-Lindau disease tumor suppressor/Bromodomain-containing protein 4 (Homo sapiens) (UniProt O60885+P40337); test: PROTAC activity at VHL/BRD4 in human A-375 cells assessed as induction of BRD4 degradation at 6 to 500 nM incubated for 12 hrs by western bot analysis; type: cell-based; details: dose 6-500 nM
Chain of von Hippel-Lindau disease tumor suppressor/Bromodomain-containing protein 4 (Homo sapiens) (P40337 whole entry, looked up, other chains not shown): as the sequence (P40337 whole entry partner) above

[17] = target: T2, von Hippel-Lindau disease tumor suppressor/Mitogen-activated protein kinase 7; test: PROTAC activity at VHL/ERK5 in human A-375 cells assessed as induction of ERK5 degradation incubated for 12 hrs by western blot analysis; type: cell-based
Target sequence in this assay (Q13164 whole entry): as the sequence (Q13164 whole entry) above
Target sequence in this assay (P40337 whole entry): as the sequence (P40337 whole entry partner) above

PC-3 = test: Antiproliferative activity against human PC-3 cells assessed as reduction in cell viability incubated for 72 hrs by CCK8 assay; type: functional, cell-based
[18] = target: T2, von Hippel-Lindau disease tumor suppressor/Mitogen-activated protein kinase 7; test: PROTAC activity at VHL/ERK5 in human MDA-MB-231 cells assessed as induction of ERK5 degradation incubated for 12 hrs by western blot analysis; type: cell-based
Target sequence in this assay (Q13164 whole entry): as the sequence (Q13164 whole entry) above
Target sequence in this assay (P40337 whole entry): as the sequence (P40337 whole entry partner) above

A-375 [19] = test: Effect on GDC0994-induced antitumor activity against human A-375 cells assessed as reduction in cell viability at 200 nM incubated for 72 hrs by CCK8 assay; type: functional, cell-based
[20] = target: T2, von Hippel-Lindau disease tumor suppressor/Mitogen-activated protein kinase 7; test: PROTAC activity at VHL/ERK5 in human NCI-H1975 cells assessed as induction of ERK5 degradation incubated for 12 hrs by western blot analysis; type: cell-based
Target sequence in this assay (Q13164 whole entry): as the sequence (Q13164 whole entry) above
Target sequence in this assay (P40337 whole entry): as the sequence (P40337 whole entry partner) above

A-375 [21] = test: Effect on dabrafenib-induced antitumor activity against human A-375 cells assessed as reduction in cell viability at 200 nM incubated for 72 hrs by CCK8 assay; type: functional, cell-based

- IC50 [1]: 62.4 nM
- Activity [2]: 92.7%
- DC50 [3]: 13.7 nM
- Activity [4]: 86.7%
- Activity [5]: Active
- Activity [8]: 89.4%
- Activity [10]: Active
- inhibition [12]: Active
- DC50 [13]: 23.5 nM
- Activity [16]: inactive
- DC50 [17]: 41.4 nM
- DC50 [18]: 22.7 nM
- DC50 [20]: 11.5 nM
SMILES: COc1cc(N2CCN(CCCCCCC(=O)N[C@H](C(=O)N3C[C@H](O)C[C@H]3C(=O)N[C@@H](C)c3ccc(-c4scnc4C)cc3)C(C)(C)C)CC2)ccc1Nc1ncc2c(n1)N(C)c1ccccc1C(=O)N2C
- Activity (HCT-116 [6]): inactive
- Activity (A-375 [7]): inactive
- Activity (A-375 [9]): inactive
- Activity (HCT-116 [11]): inactive
- inhibition (A-375 [14]): inactive
- inhibition (A-375 [15]): Active
- Activity (HepG2): inactive
- Activity (PC-3): inactive
- Activity (A-375 [19]): inactive
- Activity (A-375 [21]): inactive
